Experimental data as given in the supplement of paper PMC10331698.
± gives the standard deviation of the averaged measurements.

Experiments:
Test in all cases: level (log10 ratio to DMSO vehicle control); higher = higher biomarker level / cell amount than vehicle control
Conditions in all cases: in DMSO
[1] = compound: NC(=O)C(F)(F)C(F)(F)C(F)(F)C(F)(F)C(N)=O [Octafluoroadipamide]
Procedure: (§1)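 BioMAP Diversity Plus panel of 12 human primary cell co-culture systems (3C, 4H, LPS, SAg, BT, BF4T, BE3C, CASM3C, HDF3CGF, KF3CT, MyoF, Mphg). Compounds were added 1 h before stimulation and left for 24 h (MyoF 48 h; BT 72 h for soluble read-outs or 6 d for IgG). Biomarkers were read by ELISA, cytotoxicity by SRB, PBMC viability and proliferation by Alamar Blue. Each well value was divided by the mean of 8 DMSO control wells on the same plate and log10 transformed; duplicate blinded samples were tested at 4 concentrations.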

[2] = compound: FC(F)(F)C(F)(F)C(F)(F)CC1CO1 [1H,1H-Heptafluorobutyl epoxide]
Procedure: as §1

[3] = compound: O=S(=O)(F)C(F)(F)C(F)(F)C(F)(F)C(F)(F)C(F)(F)C(F)(F)C(F)(F)C(F)(F)F [Perfluorooctanesulfonyl fluoride]
Procedure: as §1

[4] = compound: FC(F)(F)C(F)(F)C(F)(F)CI [Heptafluorobutyl iodide]
Procedure: as §1

[5] = compound: O=S(=O)(Cl)C(F)(F)C(F)(F)C(F)(F)C(F)(F)C(F)(F)C(F)(F)C(F)(F)C(F)(F)F [Perfluoro-1-octanesulfonyl chloride]
Procedure: as §1

[6] = compound: O=C(O)C=CC(F)(C(F)(F)F)C(F)(F)F [3-(Perfluoroisopropyl)-2-propenoic acid]
Procedure: as §1

Row | Test System | level (log10) ([1]; 6700 nM) | level (log10) ([1]; 20000 nM) | level (log10) ([1]; 60000 nM) | level (log10) ([2]; 6700 nM) | level (log10) ([2]; 20000 nM) | level (log10) ([2]; 60000 nM) | level (log10) ([3]; 6700 nM) | level (log10) ([3]; 20000 nM) | level (log10) ([3]; 60000 nM) | level (log10) ([4]; 6700 nM) | level (log10) ([4]; 20000 nM) | level (log10) ([4]; 60000 nM) | level (log10) ([5]; 6700 nM) | level (log10) ([5]; 20000 nM) | level (log10) ([5]; 60000 nM) | level (log10) ([6]; 6700 nM) | level (log10) ([6]; 20000 nM) | level (log10) ([6]; 60000 nM)
1 | 3C:CD142/Tissue Factor | 0.007 ± 0.082 | 0.0255 ± 0.073 | 0.0795 ± 0.046 | 0.034 ± 0.0071 | 0 ± 0.033 | 0.0075 ± 0.022 | -0.0085 ± 0.005 | -0.0175 ± 0.0021 | -0.0105 ± 0.0021 | -0.0315 ± 0.019 | 0.0095 ± 0.016 | -0.0155 ± 0.019 | -0.035 ± 0.027 | 0.015 ± 0.013 | 0.0705 ± 0.063 | -0.018 ± 0.065 | -0.036 ± 0.048 | 0.003 ± 0.061
2 | BE3C:SRB | -0.0005 ± 0.0021 | -0.0055 ± 0.005 | 0.006 ± 0.011 | -0.0035 ± 0.00071 | 0.0015 ± 0.00071 | 0.007 | -0.003 ± 0.0014 | 0.0005 ± 0.005 | 0.0045 ± 0.021 | 0.002 ± 0.0028 | -0.003 ± 0.0071 | 0.0035 ± 0.00071 | -0.001 ± 0.0014 | -0.049 ± 0.0057 | -0.659 ± 0.019 | -0.0005 ± 0.005 | -0.002 ± 0.0014 | 0.013 ± 0.021
3 | 3C:Proliferation | -0.0265 ± 0.036 | 0.0065 ± 0.067 | -0.0085 ± 0.063 | -0.0245 ± 0.028 | -0.015 ± 0.033 | 0.004 ± 0.035 | 0.0125 ± 0.0092 | 0.0095 ± 0.016 | 0.0055 ± 0.046 | -0.0165 ± 0.00071 | 0.005 ± 0.023 | 0.014 ± 0.041 | -0.003 ± 0.0042 | 0.009 ± 0.03 | -0.112 ± 0.037 | -0.0185 ± 0.09 | -0.002 ± 0.037 | -0.0145 ± 0.049
4 | HDF3CGF:Proliferation 72hr | -0.041 ± 0.052 | 0.0825 ± 0.05 | -0.0115 ± 0.029 | -0.0905 ± 0.044 | -0.0925 ± 0.047 | -0.0225 ± 0.13 | -0.0015 ± 0.057 | 0.0385 ± 0.013 | 0.03 ± 0.037 | 0.0025 ± 0.0064 | -0.012 ± 0.0099 | -0.0085 ± 0.039 | 0.126 ± 0.04 | 0.155 ± 0.1 | -0.0105 ± 0.0035 | -0.033 ± 0.083 | 0.0165 ± 0.086 | 0.04 ± 0.073
5 | KF3CT:TIMP-2 | -0.0175 ± 0.00071 | -0.0085 ± 0.018 | 0.0265 ± 0.0021 | 0.039 ± 0.0042 | -0.006 ± 0.016 | 0.0365 ± 0.06 | -0.016 ± 0.016 | -0.0245 ± 0.022 | -0.019 ± 0.038 | -0.023 ± 0.018 | 0.0135 ± 0.00071 | -0.0125 ± 0.015 | -0.031 ± 0.0071 | -0.0235 ± 0.018 | -0.017 ± 0.051 | -0.01 ± 0.013 | 0.007 ± 0.031 | 0.0205 ± 0.023
6 | MyoF:SRB | -0.004 ± 0.0028 | -0.01 ± 0.0042 | -0.0055 ± 0.0078 | -0.006 ± 0.017 | -0.0045 ± 0.0021 | -0.002 ± 0.0057 | -0.0155 ± 0.012 | -0.0245 ± 0.025 | 0.004 ± 0.0085 | 0.002 ± 0.0028 | -0.0015 ± 0.0021 | 0.0075 ± 0.011 | 0.005 ± 0.014 | -0.009 | -0.0695 ± 0.0092 | -0.005 ± 0.0014 | -0.0085 ± 0.0035 | 0 ± 0.018
7 | 3C:CCL2/MCP-1 | -0.0065 ± 0.016 | -0.002 ± 0.0014 | 0.03 ± 0.013 | 0.0005 ± 0.0064 | -0.011 ± 0.0071 | -0.0025 ± 0.023 | -0.014 ± 0.0014 | -0.0215 ± 0.011 | 0.001 ± 0.021 | 0.014 ± 0.051 | -0.014 ± 0.041 | 0.007 ± 0.037 | -0.009 ± 0.0085 | -0.0025 ± 0.0092 | 0.017 ± 0.0014 | 0.0025 ± 0.022 | -0.009 ± 0.0014 | 0.019 ± 0.02
8 | lMphg:CCL2/MCP-1 | 0.0185 ± 0.016 | 0.0035 ± 0.0021 | 0.005 ± 0.025 | -0.0075 ± 0.011 | -0.021 ± 0.021 | 0.0105 ± 0.026 | -0.004 ± 0.023 | -0.0245 ± 0.023 | -0.0165 ± 0.0021 | 0.0255 ± 0.00071 | -0.006 ± 0.0028 | 0.0135 ± 0.0021 | 0.0175 ± 0.0092 | 0.0255 ± 0.0092 | 0.032 ± 0.0028 | -0.023 ± 0.014 | -0.0275 ± 0.011 | 0.006 ± 0.03
9 | CASM3C:Proliferation | -0.029 ± 0.023 | -0.0165 ± 0.05 | -0.037 ± 0.051 | -0.0175 ± 0.021 | -0.046 ± 0.05 | -0.026 ± 0.064 | -0.0125 ± 0.044 | -0.0265 ± 0.032 | 0.0095 ± 0.0064 | -0.008 ± 0.0085 | 0.0235 ± 0.018 | 0.008 ± 0.024 | -0.011 ± 0.078 | 0.007 ± 0.031 | -0.009 ± 0.011 | 0.0035 ± 0.019 | -0.009 ± 0.0085 | 0.009 ± 0.059
